Data as given in paper PMC9697947 (Viruses, 2022).

Tests used:
eHEV-nanoKAZ [1] = assay: Time-of-addition: viral attachment assay (intracellular luciferase activity); type: cell-based, Hepatitis E virus; details: PLC/PRF/5 cells
eHEV-nanoKAZ [2] = assay: Time-of-addition: viral internalization assay; type: cell-based, Hepatitis E virus; details: PLC/PRF/5 cells
eHEV-3 (JE03-1760F) [3] = assay: Immunofluorescence assay of HEV ORF2 protein expression in PLC/PRF/5 cells; type: cell-based, Hepatitis E virus genotype 3; details: day 4 post-inoculation
eHEV-3 (JE03-1760F) [4] = assay: HEV growth in PLC/PRF/5 cells inoculated with eHEV-3; type: cell-based, Hepatitis E virus genotype 3; details: 48 dpi
eHEV-4 (HE-JF5/15F) [5] = assay: HEV growth in PLC/PRF/5 cells inoculated with eHEV-4; type: cell-based, Hepatitis E virus genotype 4; details: 48 dpi
eHEV-3 (JE03-1760F) [6] = assay: HEV growth in PLC/PRF/5 cells robustly producing eHEV-3; type: cell-based, Hepatitis E virus genotype 3
eHEV-4 (HE-JF5/15F) [7] = assay: HEV growth in PLC/PRF/5 cells robustly producing eHEV-4; type: cell-based, Hepatitis E virus genotype 4
HEV [8] = details: ribavirin monotherapy; undetectable serum HEV RNA at least six months after cessation; cited from earlier work
eHEV-nanoKAZ [9] = assay: microbe, parasite or virus in culture; details: Hepatitis E virus, PLC-PRF-5, read-out: Inhibition (%) of intracellular luciferase activity
eHEV-nanoKAZ [10] = assay: Time-of-addition: viral inactivation assay (intracellular luciferase activity); details: PLC/PRF/5 cells, 4 days post-inoculation
[11] = set-up: method as in ref 47 = [47]; details: Antiretroviral Pregnancy Registry (APR); cited from earlier work
HEV [12] = tested on: HEV; set-up: method as in ref 31 = [31]; details: cited from earlier work
[13] = ribavirin 40 μM, mean of triplicate wells
[14] = ribavirin 40 μM, 60 days after the start of drug treatment, mean of triplicate wells
[15] = ribavirin alone 40 µM, day 60 after the start of drug treatment

In the case of `NC(=O)c1ncn([C@@H]2O[C@H](CO)[C@@H](O)[C@H]2O)n1` [Ribavirin, ribavirin], the intracellular luciferase activity (eHEV-nanoKAZ [1]; ribavirin 40 µM during attachment) is reported as “did not decrease intracellular luciferase activity”, the intracellular luciferase activity (eHEV-nanoKAZ [2]; ribavirin 40 µM added after attachment) is reported as “did not decrease intracellular luciferase activity” and the “expression of ORF2 protein” value (eHEV-3 (JE03-1760F) [3]; ribavirin 40 µM during 4 h inoculation) is reported as “detectable”. The “Intracellular HEV RNA” value (eHEV-3 (JE03-1760F) [4]; [13]) was 1.2 × 10^8 copies/well (mean), the “HEV RNA titer in culture supernatants” value (eHEV-3 (JE03-1760F) [4]; ribavirin monotherapy 40 µM) was 2.0 × 10^7 copies/mL and the “Intracellular HEV RNA” value (eHEV-4 (HE-JF5/15F) [5]; [13]) was 4.4 × 10^7 copies/well (mean). For the same compound, the “HEV RNA titer in culture supernatants” value (eHEV-4 (HE-JF5/15F) [5]; ribavirin monotherapy 40 µM) was 4.3 × 10^7 copies/mL, the “Intracellular HEV RNA” value (eHEV-3 (JE03-1760F) [6]; [14]) was 1.6 × 10^7 copies/well (mean) and the “HEV RNA titer in culture supernatants” value (eHEV-3 (JE03-1760F) [6]; [15]) was 2.7 × 10^6 copies/mL. The “Intracellular HEV RNA” value (eHEV-4 (HE-JF5/15F) [7]; [14]) was 2.3 × 10^7 copies/well (mean), the “HEV RNA titer in culture supernatants” value (eHEV-4 (HE-JF5/15F) [7]; [15]) was 2.9 × 10^7 copies/mL and the “sustained virological response (SVR), patients achieving” value (HEV [8]) was “approximately 80%”. For the same compound, the inhibition at 1 µM (eHEV-nanoKAZ [9]) was 20.4%, the inhibition at 5 µM (eHEV-nanoKAZ [9]) was 24.2% and the inhibition at 10 µM (eHEV-nanoKAZ [9]) was 33.3%. It also gave an inhibition at 20 µM (eHEV-nanoKAZ [9]) of 58%, an inhibition at 40 µM (eHEV-nanoKAZ [9]) of 79.6% and an inhibition at 80 µM (eHEV-nanoKAZ [9]) of 91%. For the same compound, the intracellular luciferase activity (eHEV-nanoKAZ [10]; ribavirin 40 µM pre-incubated with eHEV-nanoKAZ) was “did not decrease intracellular luciferase activity”.

For `CC(C)c1nc(CN(C)C(=O)N[C@H](C(=O)N[C@@H](Cc2ccccc2)C[C@H](O)[C@H](Cc2ccccc2)NC(=O)OCc2cncs2)C(C)C)cs1` [Ritonavir, ritonavir], the intracellular luciferase activity (eHEV-nanoKAZ [1]; ritonavir 20 µM during attachment (4 °C 1 h, 37 °C 1 h), compared to untreated control) was 100.4%, the intracellular luciferase activity (eHEV-nanoKAZ [2]; ritonavir 20 µM added after attachment, 37 °C 2 h, compared to untreated control, p = 0.0036) was 9.6% and the “expression of ORF2 protein” value (eHEV-3 (JE03-1760F) [3]; ritonavir 20 µM during 4 h inoculation) was “undetectable”. The “risk of human teratogenicity” value [11] was “no evidence of an increased risk of human teratogenicity”, the “inhibition of HEV growth in cultured cells” value (HEV [12]) was “potent inhibition of HEV growth in cultured cells” and the inhibition at 0.05 µM (eHEV-nanoKAZ [9]) was 18.1%. The inhibition at 0.1 µM (eHEV-nanoKAZ [9]) was 29.1%, the inhibition at 0.5 µM (eHEV-nanoKAZ [9]) was 59.6% and the inhibition at 1 µM (eHEV-nanoKAZ [9]) was 71.6%. For the same compound, the inhibition at 5 µM (eHEV-nanoKAZ [9]) was 89.7%, the inhibition at 35 µM (eHEV-nanoKAZ [9]) was 95.9% and the intracellular luciferase activity (eHEV-nanoKAZ [10]; ritonavir 20 µM pre-incubated with eHEV-nanoKAZ 1 h 37 °C, compared to untreated control) was 94.3%.

For `OC[C@H]1O[C@@](CO)(O[C@H]2O[C@H](CO)[C@@H](O)[C@H](O)[C@H]2O)[C@@H](O)[C@@H]1O` [Sucrose], the intracellular luciferase activity (eHEV-nanoKAZ [2]; sucrose 250 mM added after attachment, 37 °C 2 h, compared to untreated control, p = 0.0033) was 14.9% and the “expression of ORF2 protein” value (eHEV-3 (JE03-1760F) [3]; sucrose 250 mM during 4 h inoculation) was “undetectable”.
